Experiment [1] concerns HDAC (nuclear fraction of Hela cells). Put plainly: Assay of enzyme inhibition of HDAC (BIOMOL Kit). The class given is biochemical. Conditions: substrate 200 μM, 15 min at RT. The procedure: 2.2 Assay of Enzyme Inhibition of HDAC
The in-vitro activity of HDAC inhibitors was assayed using a BIOMOL Kit, according to the instructions from the manufacturer (Biomolecular Research Laborator). 15 μl of 30× diluted nuclear fraction of Hela cells, was diluted to 50 μl with the assay buffer containing the HDAC inhibitor and the substrate (lysine with acetylated amino group on the side chain) at a concentration of 200 μM. The samples were incubated for 15 min at RT and then exposed to a developer (10 min at RT). In this last step a fluorophore was produced, whose fluorescence was measured using an excitation wavelength of 355 nm and an emission at 460 nm. The IC50 was calculated using GraphPad Software.

A further experiment has as its system HCT-116 cells. Put plainly: Cell growth, CellTiter-Glo Luminescent Cell Viability Assay, HCT-116. The format is cell-based. The conditions noted are these: Homo sapiens, HCT116 cells, 72 h incubation, read-out: IC50 antiproliferative assay HCT116. From the text: (§1) CellTiter-Glo® Luminescent Cell Viability Assay (Promega) is a homogeneous method of determining the number of viable cells in culture based on quantitation of the present ATP, which indicates the presence of metabolically active cells. The homogeneous assay procedure involves addition of a single reagent (CellTiter-Glo® Reagent) directly to the cells, which leads to cell lysis and generation of a luminescent signal proportional to the amount of the ATP and the number of cells present in culture. The assay relies on the properties of a proprietary thermostable luciferase (Ultra-Glo® recombinant luciferase), which generates a luminescent signal.
(§2) K562, A549 and HCT-116 cells, in exponential growth, were incubated for 72 h with different concentrations of the inhibitors. After 72 h, a volume of CellTiter-Glo® Reagent equal to the volume of cell culture medium was added. The content was mixed for 2 min to induce cell lysis. The luminescence was recorded after further 10 min at RT in order to obtain a stabilized luminescent signal.
(§3) The IC50 was calculated using GraphPad Software.
(§4) IC50 results were allocated to one of 3 ranges as follows: Range A: IC50≦1.0 μM; Range B: from 1.0 to 3.0 μM; Range C: IC50≧3.0 μM.

A further experiment relates to K562 cells. Put plainly: Cell growth, CellTiter-Glo Luminescent Cell Viability Assay, K562. The class given is cell-based. Conditions: Homo sapiens, 72 h incubation, read-out: IC50 antiproliferative assay K562.
From the text: as §1, §2, §3, §4

In a further experiment the test system is A549 cells. Put plainly: Cell growth, CellTiter-Glo Luminescent Cell Viability Assay, A549. The format is cell-based. Conditions: Homo sapiens, 72 h incubation, read-out: IC50 antiproliferative assay A549.
From the text: as §1, §2, §3, §4
On the technique in general: In ATP-based viability assays light output follows the ATP content of the culture.

Molecules are shown by their SMILES. Where only a bound is given, the exact number is not on record here.

For orientation: IC50 means the concentration at which inhibition is half-maximal. With `O=C(/C=C/c1ccc2c(c1)C(=NOCc1ccccc1)CC1(CCN(Cc3ccccc3)CC1)O2)NO` (racemic) [Example 17, (E)-3-{1′-Benzyl-4-benzyloxyimino-spiro[chromane-2,4′-piperidine]-6-yl}-N-hydroxy-acrylamide], the IC50 is greater than 1000 nM in experiment [1], 1000 to 3000 nM in the experiment on HCT-116 cells, 1000 to 3000 nM with K562 cells and 1000 to 3000 nM in the experiment on A549 cells.

In the case of `CON=C1CC2(CCN(Cc3ccccc3)CC2)Oc2ccc(/C=C/C(=O)NO)cc21` (racemic) [Example 18, (E)-3-{1′-Benzyl-4-methyloxyimino-spiro[chromane-2,4′-piperidine]-6-yl}-N-hydroxy-acrylamide], the IC50 in experiment [1] was 100 to 1000 nM; with HCT-116 cells it was no more than 1000 nM; in the experiment on K562 cells, 1000 to 3000 nM; with A549 cells, 1000 to 3000 nM.

In the case of `O=C(/C=C/c1ccc2c(c1)C(=O)CC1(CCNCC1)O2)NO` [Example 1, (E)-3-{4-oxo-spiro[chromane-2,4′-piperidine]-6-yl}-N-hydroxy-acrylamide], the IC50 in experiment [1] was less than 100 nM; in the experiment with HCT-116 cells it was 1000 to 3000 nM; in the experiment on K562 cells, no less than 3000 nM; with A549 cells it was 1000 to 3000 nM.

In the case of `O=C(/C=C/c1ccc2c(c1)C(=O)CC1(CCN(Cc3ccccc3)CC1)O2)NO` [Example 2, (E)-3-{1′-Benzyl-4-oxo-spiro[chromane-2,4′-piperidine]-6-yl}-N-hydroxy-acrylamide], the IC50 was 100 to 1000 nM in experiment [1], no more than 1000 nM with HCT-116 cells, no more than 1000 nM with K562 cells and no more than 1000 nM in the experiment on A549 cells.

As to `CC(=O)N1CCC2(CC1)CC(=O)c1cc(/C=C/C(=O)NO)ccc1O2` [Example 3, (E)-3-{1′-Acetyl-4-oxo-spiro[chromane-2,4′-piperidine]-6-yl}-N-hydroxy-acrylamide], the IC50 in experiment [1] is 100 to 1000 nM; in the experiment with HCT-116 cells it was no less than 3000 nM; in the experiment with K562 cells, no less than 3000 nM; in the experiment on A549 cells, no less than 3000 nM.

In the case of `O=C(/C=C/c1ccc2c(c1)C(=O)CC1(CCN(C(=O)c3ccccc3)CC1)O2)NO` [Example 4, (E)-3-{1′-Benzoyl-4-oxo-spiro[chromane-2,4′-piperidine]-6-yl}-N-hydroxy-acrylamide], the IC50 in experiment [1] was 100 to 1000 nM; with HCT-116 cells it was 1000 to 3000 nM; in the experiment with K562 cells, 1000 to 3000 nM; with A549 cells, no less than 3000 nM.

For the molecule `CN1CCC2(CC1)CC(=O)c1cc(/C=C/C(=O)NO)ccc1O2` [Example 5, (E)-3-{1′-Methyl-4-oxo-spiro[chromane-2,4′-piperidine]-6-yl}-N-hydroxy-acrylamide], the IC50 in experiment [1] was 100 to 1000 nM; in the experiment on HCT-116 cells it was no more than 1000 nM; in the experiment with K562 cells, no more than 1000 nM; with A549 cells, 1000 to 3000 nM.

With `CCOC(=O)N1CCC2(CC1)CC(=O)c1cc(/C=C/C(=O)NO)ccc1O2` [Example 6, (E)-3-{1′-Ethyloxycarbonyl-4-oxo-spiro[chromane-2,4′-piperidine]-6-yl}-N-hydroxy-acrylamide], the IC50 was 100 to 1000 nM in experiment [1], 1000 to 3000 nM with HCT-116 cells, 1000 to 3000 nM with K562 cells and no less than 3000 nM in the experiment on A549 cells.

As for `O=C(/C=C/c1ccc2c(c1)C(=O)CC1(CCN(c3ccccc3)CC1)O2)NO` [Example 7, (E)-3-{1′-Phenyl-4-oxo-spiro[chromane-2,4′-piperidine]-6-yl}-N-hydroxy-acrylamide], the IC50 in experiment [1] is 100 to 1000 nM; in the experiment on HCT-116 cells, 1000 to 3000 nM; in the experiment on K562 cells it was no more than 1000 nM; with A549 cells, 1000 to 3000 nM.

On to `O=C(/C=C/c1ccc2c(c1)OC1(CCNCC1)CC2=O)NO` [Example 8, (E)-3-{4-oxo-spiro[chromane-2,4′-piperidine]-7-yl}-N-hydroxy-acrylamide], for which the IC50 in experiment [1] is greater than 1000 nM; in the experiment with HCT-116 cells it was no less than 3000 nM; in the experiment with K562 cells, no less than 3000 nM; in the experiment with A549 cells, no less than 3000 nM.

Turning to `O=C(/C=C/c1ccc2c(c1)OC1(CCN(Cc3ccccc3)CC1)CC2=O)NO` [Example 9, (E)-3-{1′-Benzyl-4-oxo-spiro[chromane-2,4′-piperidine]-7-yl}-N-hydroxy-acrylamide], the IC50 in experiment [1] is greater than 1000 nM; with HCT-116 cells it was no less than 3000 nM; with K562 cells, no less than 3000 nM; with A549 cells, no less than 3000 nM.

Consider `CC(=O)N1CCC2(CC1)CC(=O)c1ccc(/C=C/C(=O)NO)cc1O2` [Example 10, (E)-3-{1′-Acetyl-4-oxo-spiro[chromane-2,4′-piperidine]-7-yl}-N-hydroxy-acrylamide], for which the IC50 in experiment [1] was greater than 1000 nM; in the experiment with HCT-116 cells, no less than 3000 nM; with K562 cells it was no less than 3000 nM; in the experiment on A549 cells it was no less than 3000 nM.

Regarding `O=C(/C=C/c1ccc2c(c1)OC1(CCN(C(=O)c3ccccc3)CC1)CC2=O)NO` [Example 11, (E)-3-{1′-Benzoyl-4-oxo-spiro[chromane-2,4′-piperidine]-7-yl}-N-hydroxy-acrylamide], the IC50 in experiment [1] is 100 to 1000 nM; with HCT-116 cells it was no less than 3000 nM; in the experiment with K562 cells, no less than 3000 nM; in the experiment on A549 cells it was no less than 3000 nM.

For the molecule `CCOC(=O)N1CCC2(CC1)CC(=O)c1ccc(/C=C/C(=O)NO)cc1O2` [Example 12, (E)-3-{1′-Ethyloxycarbonyl-4-oxo-spiro[chromane-2,4′-piperidine]-7-yl}-N-hydroxy-acrylamide], the IC50 in experiment [1] was 100 to 1000 nM; in the experiment on HCT-116 cells, no less than 3000 nM; in the experiment with K562 cells, 1000 to 3000 nM; in the experiment on A549 cells it was 1000 to 3000 nM.

With `O=C(/C=C/c1ccc2c(c1)CCC1(CCN(Cc3ccccc3)CC1)O2)NO` [Example 13, (E)-3-{1′-Benzyl-spiro[chromane-2,4′-piperidine]-6-yl}-N-hydroxy-acrylamide], the IC50 in experiment [1] was greater than 1000 nM; in the experiment on HCT-116 cells, no less than 3000 nM; in the experiment on K562 cells, no less than 3000 nM; in the experiment on A549 cells it was no less than 3000 nM.

On to `Cc1ccc(CCN2CCC3(CC2)CC(=O)c2cc(/C=C/C(=O)NO)ccc2O3)cc1` [Example 61, (E)-3-{1′-[2-(4-Methyl-phenyl)-ethyl]-4-oxo-spiro[chromane-2,4′-piperidine]-6-yl}-N-hydroxy-acrylamide], for which the IC50 in experiment [1] was less than 100 nM.

Consider `O=C(/C=C/c1ccc2c(c1)C(=O)CC1(CCN(Cc3ccc4ccccc4n3)CC1)O2)NO` [Example 65, (E)-3-{1′-(Quinolin-2-ylmethyl)-4-oxo-spiro[chromane-2,4′-piperidine]-6-yl}-N-hydroxy-acrylamide], for which the IC50 in experiment [1] was less than 100 nM.

For `O=C(/C=C/c1ccc2c(c1)C(=O)CC1(CCN(Cc3cnc4ccccc4c3)CC1)O2)NO` [Example 66, (E)-3-{1′-(Quinolin-3-ylmethyl)-4-oxo-spiro[chromane-2,4′-piperidine]-6-yl}-N-hydroxy-acrylamide], the IC50 in experiment [1] was in the range of 100 to 1000 nM.

Molecule `O=C(/C=C/c1ccc2c(c1)C(=O)CC1(CCN(Cc3ccccc3-c3ccccc3)CC1)O2)NO` [Example 67, (E)-3-{1′-(Biphenyl-2yl-methyl)-4-oxo-spiro[chromane-2,4′-piperidine]-6-yl}-N-hydroxy-acrylamide] yielded an IC50 in experiment [1] of 100 to 1000 nM.

`O=C(/C=C/c1ccc2c(c1)C(=O)CC1(CCN(C3CCCC3)CC1)O2)NO` [Example 70, (E)-3-{1′-Cyclopentyl-4-oxo-spiro[chromane-2,4′-piperidine]-6-yl}-N-hydroxy-acrylamide] showed an IC50 in experiment [1] of 100 to 1000 nM.

For the molecule `O=C(/C=C/c1ccc2c(c1)C(=O)N(Cc1ccccc1)C1(CCNCC1)O2)NO` [Example 82, (E)-3-{3,4-Dihydro-3-benzyl-4-oxo-spiro[2H-(1,3)-benzoxazine-2,4′-piperidin]-6-yl}-N-hydroxy-acrylamide], the IC50 in experiment [1] was less than 100 nM.

Source of the values: patent US9115148B2, “Spirocyclic derivatives as histone deacetylase inhibitors” (DAC S.R.L., priority 2008, dated 2015).
